Here are results for two molecules from US20250129334A1, “LINEAGE SPECIFICATION DURING STEM CELL TRANSITION” (Amniotics AB, priority 2021, published 2025).

The subject of assay [1] is HE cells. Put plainly: Transplantation of treated HE cells into irradiated NSG mice. The class given is in vivo. The method, then: Sorted human HE cells (350,000) were mixed with OP9-DL1 stroma (60,000) and subcultured for 3 days with or without DCA (3 mM) on Matrigel (16 μg/cm^2, Corning)-coated 12-well plates in HE medium (32). Between 100,000-150,000 cells from control or DCA samples were transplanted into sub lethally irradiated (300 cGy) 8-week-old female NOD/Cg-Prkdc^scid Il2^tm1Wj1/SzJ mice (NSG, The Jackson Laboratory) together with 20,000 whole BM support cells from C57BV6.SJL mice (CD45.1^+/CD45.2^+, in house breeding). Cells were transplanted in single cell solution in 250 μL PBS with 2% FBS through intravenous tail vein injection. Drinking water of transplanted NSG mice was supplemented with ciprofloxacin (125 mg/L, HEXAL) for 3 weeks after transplantation to prevent infection. Mice were housed in a controlled environment with 12-hour light-dark cycles with chow and water provided ad libitim. Experiments and animal care were performed in accordance with the Lund University Animal Ethical Committee.
Peripheral blood (PB) was collected from the tail vein into EDTA-coated microvette tubes (Sarstedt, Cat #20.1341.100). […]
Bone marrow was analyzed at the 12-week transplantation endpoint. […]

Assay [2] relates to HE cells. Put plainly: Lymphoid (NK) differentiation assay on OP9-DL1 stroma. Format: cell-based, human. Conditions: 3-day treatment, 35-day co-culture; UK5099 10 μM, DCA 3 mM. The procedure:
Subculture day 3 HE cells cultured in the presence of UK5099 (10 μM) or DCA (3 mM or 10 mM), as indicated, were collected after a 2-minute incubation at 37° C. with StemPro Accutase Cell Dissociation Reagent and seeded onto 80% confluent OP9-DL1 stroma. Cells were cultured in OP9 medium (OptiMEM medium with Glutamax (Invitrogen) with 10% FCS, 1% penicillin-streptomycin solution (Thermo Fisher Scientific) and 1% 2-mercaptoethanol (Invitrogen)) with SCF (10 ng/ml), FLT3-L (10 ng/ml), IL-2 (5 ng/ml), IL-7 (5 ng/ml, first 15 days only) and IL-15 (10 ng/ml) with passaging onto new OP9-DL1 stroma every week, as described previously (Renoux, V. M. et al. Identification of a Human Natural Killer Cell Lineage-Restricted Progenitor in Fetal and Adult Tissues. Immunity 43, 394-407 (2015)). At day 35 of co-culture, cells were analyzed on a BD LSRFortessa.

Assay [3] relates to fetal liver. Put plainly: In vivo compound injection of pregnant mice, fetal liver analysis at E14.5. The method, then: For fetal liver analysis, pregnant female C57Bl/6xB6.SJL mice were injected intraperitoneally at E9.5 with UK5099 (4 mg/kg) or DCA (200 mg/kg) or PBS (control). Embryos were harvested at E14.5 and individually weighed and processed. Fetal livers were dissected and homogenised in 800 μL ice cold PBS supplemented with 2% fetal bovine serum (FBS) and FL cells were washed in PBS with 2%/FBS. For the differentiated lineage panel, cells were stained with B220 and CD19 (B-cell markers)-PE, CD3e-APC, Ter119-PeCy7 and CD71-FITC and analyzed on a BD FACSARIA III. For the HSC panel, samples were first treated with ammonium chloride solution (STEMCELL Technologies, France) to lyse red blood cells, washed twice in ice cold PBS with 2% FBS, stained with CD3e, B220, Ter119, Gr1 (Lineage)-PeCy5, c-Kit-Efluor780, Sca1-BV421, CD48-FITC, CD150-BV605 and 7-AAD (for dead cell exclusion) and analyzed on a BD FACSARIA III. […] For plating of CFU assays, 100 LT-HSCs were sorted (gating strategy shown in FIG. 11, e) and resuspended in 3.0 mL Methocult M3434 (STEMCELL Technologies, France). Each mixture was divided onto 2 wells of a non-tissue culture treated 6-well plate. Following a 14-day incubation in a humidified incubator at 37° C., 5% CO2, 20% O2, colonies were morphologically distinguished and scored. […] Cells were stained with anti-cKit and anti-CD45 antibodies and analyzed on a BD LSRFortessa. […]

In the case of `O=C(O)C(Cl)Cl` [DCA, dichloroacetate], the “increase of CLP (common lymphoid progenitor)” value in assay [1] (FIG. 3, n, BM week 12) was determined as 3 fold. Further, the “human CD45+ cells in the peripheral blood” value in assay [1] (week 8, 3-day DCA-treated HE cells) is “around 1%”.

With `N#CC(=Cc1cn(-c2ccccc2)c2ccccc12)C(=O)O` [UK5099, 2-Cyano-3-(1-phenyl-1H-indol-3-yl)-2-propenoic acid], the “NK cell differentiation (CD45+CD56+ cells)” value in assay [2] was “impaired NK cell formation”. In addition, the “frequency of phenotypic long-term HSCs (LT-HSCs)” value in assay [3] (LSK CD48-CD150+, UK5099 4 mg/kg, DCA 200 mg/kg) is “not significantly affected”. In addition, in assay [3] (UK5099 4 mg/kg i.p. at E9.5), the “in vivo EHT and hematopoiesis” value is given as “did not see a significant effect”.
